From patent US11674959B2, “Methods for identifying and preparing pharmaceutical agents for activating Tie1 and/or Tie2 receptors” (The Johns Hopkins University, priority 2017, dated 2023)

Assays:
[1] = test system: myosin light chain 2 (MLC2); test: Western blot of MEC lysates for pMLC2; format: cell-based, human; conditions: AXT107 and 200 ng/ml Ang2
Protocol: Phosphorylation of Tie2 is known to stimulate the Rap1-GTPase pathway, leading to a reduction in the phosphorylation of the downstream motor protein myosin light chain 2 (MLC2) associated with actin rearrangement.
For Ang1/2 signaling investigations, cell culture dishes (10 cm diameter) were coated with 5 μg/ml fibronectin (FN1; Sigma-Aldrich, St. Louis, Mo.) for two hours at 37° C. The FN1 solution was then removed by aspiration and 5×10^6 microvascular endothelial cells (MECs; Lonza, Walkersville, Md.) were plated in EGM-2MV media (Lonza) and cultured for forty-eight hours at 37° C. The cells were then serum starved for sixteen hours in serum-free EGM-2 base media (Lonza). AXT107 (0-100 μM, as indicated) was subsequently added to each culture and incubated for seventy-five minutes at 37° C. […] Specific proteins were identified by Western blot, using the following primary antibodies: Cell Signaling—phospho-Tie2 (Y992) (Cat #: 4221), Tie2 (Cat #: 7403), phospho-Stat3 (Y705) (Cat #: 4113), Stat3 (Cat #: 4904), phospho-Akt (S473) (Cat #: 4058), Akt (Cat #: 9272), phospho-p44/42 MAPK (T202/Y204) (Cat #: 4370), p44/42 MAPK (Cat #: 4695); BD Transduction Laboratories—β1 integrin (Cat #: 610467); Millipore—α5 integrin (Cat #: AB1928) and detected with HRP-conjugated goat anti-rabbit and sheep anti-mouse secondary antibodies (GE healthcare).

MEC monolayers = test: FITC Transwell permeability assay; format: cell-based, human
Protocol: The integrity of these junctions is also important for the regulation of monolayer permeability by controlling the size of intercellular openings. The effect of the AXT107 on EC permeability was further investigated by the transendothelial diffusion of FITC-labeled dextran across MEC monolayers seeded onto permeable Transwell® substrates.
Human dermal microvascular endothelial cells (Lonza) were maintained at 37° C. and 5% CO2 in EBM-2MV medium (Lonza) and used between passages two through seven. Where applicable, cells were serum starved in EBM-2 medium (Lonza) with no supplements. For FITC-Dextran permeability assays phenol red-free media were used to avoid auto-fluorescence. AXT107 were manufactured at New England Peptide by […], lyophilized, and dissolved in 100% DMSO.
Transwell, twenty-four-well inserts (Corning) were coated with 7.5 μg/cm^2 FN1 for two hours at 37° C., aspirated, and then dried for thirty minutes at room temperature. Wells were then seeded with 7.5×10^4 MECs in 100 μl of EBM-2 media (without phenol red) and allowed to settle for thirty minutes at room temperature. 1 ml of EGM-2 media was then added to the bottom chamber and an additional 200 μl to the top chamber. The plate was incubated for twenty-four hours at 37° C. after which the media was aspirated and an additional 7.5×10^4 MECs were plated in each well as described above. After forty-eight hours at 37° C., the media was aspirated from both chambers and the cells were washed twice in dPBS containing Ca^2+ and Mg^2+, once with EBM-2 media (without phenol red) and serum starved in EBM-2 media applied to both chambers for two hours at 37° C. After this incubation, 100 μM AXT107 or an equivalent amount of DMSO vehicle was added and incubated for an additional ninety minutes. In the top chamber, the cells were then treated with 200 ng/ml Ang2, 100 ng/ml VEGFA, both, or PBS control and in the bottom chamber, the cells were then treated with 25 μg/ml FITC-Dextran (40 kDa MW). AXT107 was also added in both chambers to maintain a concentration of 100 μM. After three hours, 10 μl was removed from the top chamber of each well and mixed with 90 μl of water in a clear bottom, 96-well plate. Fluorescence values for each sample were calculated using a Perkin Elmer plate reader.

Q: Which “Phosphorylation of MLC2” value [1] does the source give for LRRFSTAPFAFIDINDVINF [AXT107] here?
A: reduced in a dose-dependent manner

Q: What about the “FITC-dextran diffusion into the top chamber” value (MEC monolayers; 100 μM AXT107 pre-incubation + Ang2, vs growth factor alone) of the same sequence?
A: significant decrease in FITC-dextran diffusion into the top chamber

Q: What about the “FITC-dextran diffusion into the top chamber” value (MEC monolayers; 100 μM AXT107 pre-incubation + Ang2 in combination with VEGF, vs growth factors alone) of the same sequence?
A: significant decrease in FITC-dextran diffusion into the top chamber

Q: And the “FITC-dextran diffusion into the top chamber” value (MEC monolayers; VEGF in the presence vs absence of peptide)?
A: similar, but non-significant trend

Q: And the “FITC-dextran diffusion across the monolayer, agent alone” value (MEC monolayers; single agent alone, FITC-Dextran 40 kDa, three hours)?
A: influenced FITC-dextran diffusion across the monolayer
